According to US20050209244A1, “N{5-[4-(4-methyl-piperazino-methyl)-benzoylamido]-2-methylphenyl}-4-(3-pyridyl)-2-pyrimidine-amine coated stents” (priority 2002, published 2005):

What was measured:
[1] = in conjunction with COMPOUND I
Description: Data points just spanning the IC50 of the agents alone or in combination are entered into the CalcuSyn program (CalcuSyn, Biosoft, Cambridge UK).

[2] = target: c-Met (Homo sapiens, UniProt P08581); conditions: cited from earlier work
[3] = target: Flt-1 (Homo sapiens, UniProt P17948); conditions: cited from earlier work
[4] = target: β-PDGF receptor (Homo sapiens, UniProt P09619); conditions: cited from earlier work
[5] = system: neointimal lesion formation; assay: 28 day rat carotid artery balloon injury model; type: in vivo; conditions: for percent inhibition of neointimal lesion formation: 28 days post-balloon injury
Description: Compounds of formula I are tested in the following rat model.
Rats are dosed orally with placebo or a compound of formula 1. Daily dosing starts 3 days prior to surgery and continues for 31 days. Rat carotid arteries are balloon injured using a method described by Clowes et al., Lab. Invest. 1983;49;208-215. Following sacrifice at 28 days post-balloon Injury, carotid arteries are removed and processed for histologic and morphometric evaluation.

[6] = system: platelet-derived growth factor (PDGF) receptor; conditions: in vitro; cited from earlier work
[7] = target: Tek (Homo sapiens, UniProt Q02763); conditions: cited from earlier work
[8] = target: Kdr (Homo sapiens, UniProt P35968); conditions: cited from earlier work
[9] = system: restenotic lesion formation; assay: Rabbit iliac stent model, restenosis at 28 days; type: in vivo, New Zealand White rabbit
Description: A combined angioplasty and stenting procedure is performed in New Zealand White rabbit iliac arteries. Iliac artery balloon injury is performed by inflating a 3.0×9.0 mm angioplasty balloon in the mid-portion of the artery followed by “pull-back” of the catheter for 1 balloon length. Balloon injury is repeated 2 times, and a 3.0×12 mm stent is deployed at 6 atm for 30 seconds in the iliac artery. Balloon injury and stent placement is then performed on the contralateral iliac artery in the same manner. A post-stent deployment angiogram is performed. All animals receive oral aspirin 40 mg/day daily as anti-platelet therapy and are fed standard low-cholesterol rabbit chow. Twenty-eight days after stenting, animals are anesthetized and euthanized and the arterial tree is perfused at 100 mmHg with lactated Ringer's for several minutes, then perfused with 10% formalin at 100 mmHg for 15 minutes. The vascular section between the distal aorta and the proximal femoral arteries is excised and cleaned of periadventitial tissue. The stented section of artery is embedded in plastic and sections are taken from the proximal, middle, and distal portions of each stent. All sections are stained with hematoxylin-eosin and Movat pentachrome stains. Computerized planimetry is performed to determine the area of the internal elastic lamina (IEL), external elastic lamina (EEL) and lumen. The neointima and neointimal thickness is measured both at and between the stent struts. The vessel area is measured as the area within the EEL. Data are expressed as mean±SEM. Statistical analysis of the histologic data is accomplished using analysis of variance (ANOVA) due to the fact that two stented arteries are measured per animal with a mean generated per animal. A P<0.05 is considered statistically significant.
COMPOUND is administered orally by gavage at 30 mg/kg once daily from 3 days prior to stenting until day 27 post-stenting. […] There is extensive neointimal formation in placebo-treated animals at 28 days, with the lesions consisting of abundant smooth muscle cells in proteoglycan/collagen matrix and apparent full endothelial healing. In arterial segments from the animals treated with COMPOUND I, the Intima is well healed, characterized by a compact neointima consisting of smooth muscle cells and endothelium fully covering the lumen surface both over stent struts and between struts.

[10] = target: receptor for stem cell factor (Homo sapiens, UniProt P10721); conditions: cited from earlier work
[11] = target: Jak-2 (Homo sapiens, UniProt O60674); conditions: cited from earlier work
[12] = target: T1, Flt-3 (Homo sapiens, UniProt P36888); conditions: cited from earlier work
T1 sequence (P36888 27-993): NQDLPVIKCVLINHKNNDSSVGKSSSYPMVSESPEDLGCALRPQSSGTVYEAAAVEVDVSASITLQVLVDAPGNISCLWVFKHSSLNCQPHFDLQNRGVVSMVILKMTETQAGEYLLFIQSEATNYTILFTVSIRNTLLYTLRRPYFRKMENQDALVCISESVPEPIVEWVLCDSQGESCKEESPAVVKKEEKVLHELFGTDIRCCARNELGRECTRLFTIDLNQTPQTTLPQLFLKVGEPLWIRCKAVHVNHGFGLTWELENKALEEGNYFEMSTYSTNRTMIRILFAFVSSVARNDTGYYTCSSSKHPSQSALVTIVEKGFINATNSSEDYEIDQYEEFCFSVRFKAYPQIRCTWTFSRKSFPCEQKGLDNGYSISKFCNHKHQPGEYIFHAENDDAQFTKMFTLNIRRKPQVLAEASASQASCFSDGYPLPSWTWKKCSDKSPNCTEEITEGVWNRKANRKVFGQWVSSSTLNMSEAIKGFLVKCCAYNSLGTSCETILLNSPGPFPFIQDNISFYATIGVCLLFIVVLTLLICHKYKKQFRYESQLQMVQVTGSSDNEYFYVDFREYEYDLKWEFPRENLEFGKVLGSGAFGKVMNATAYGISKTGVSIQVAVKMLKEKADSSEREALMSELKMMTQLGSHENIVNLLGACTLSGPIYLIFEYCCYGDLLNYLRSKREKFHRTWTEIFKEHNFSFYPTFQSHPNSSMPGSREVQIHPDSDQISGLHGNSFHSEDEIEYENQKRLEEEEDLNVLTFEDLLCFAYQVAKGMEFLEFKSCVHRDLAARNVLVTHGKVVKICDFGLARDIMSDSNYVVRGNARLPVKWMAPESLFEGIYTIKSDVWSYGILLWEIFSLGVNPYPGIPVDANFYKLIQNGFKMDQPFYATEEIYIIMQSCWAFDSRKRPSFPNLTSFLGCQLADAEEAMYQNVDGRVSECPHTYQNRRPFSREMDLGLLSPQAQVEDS

[13] = target: α-PDGF receptor (Homo sapiens, UniProt P16234); conditions: cited from earlier work
[14] = 30 mg/kg orally once daily, 28 days after stenting

Sequence of c-Met (P08581 25-1390): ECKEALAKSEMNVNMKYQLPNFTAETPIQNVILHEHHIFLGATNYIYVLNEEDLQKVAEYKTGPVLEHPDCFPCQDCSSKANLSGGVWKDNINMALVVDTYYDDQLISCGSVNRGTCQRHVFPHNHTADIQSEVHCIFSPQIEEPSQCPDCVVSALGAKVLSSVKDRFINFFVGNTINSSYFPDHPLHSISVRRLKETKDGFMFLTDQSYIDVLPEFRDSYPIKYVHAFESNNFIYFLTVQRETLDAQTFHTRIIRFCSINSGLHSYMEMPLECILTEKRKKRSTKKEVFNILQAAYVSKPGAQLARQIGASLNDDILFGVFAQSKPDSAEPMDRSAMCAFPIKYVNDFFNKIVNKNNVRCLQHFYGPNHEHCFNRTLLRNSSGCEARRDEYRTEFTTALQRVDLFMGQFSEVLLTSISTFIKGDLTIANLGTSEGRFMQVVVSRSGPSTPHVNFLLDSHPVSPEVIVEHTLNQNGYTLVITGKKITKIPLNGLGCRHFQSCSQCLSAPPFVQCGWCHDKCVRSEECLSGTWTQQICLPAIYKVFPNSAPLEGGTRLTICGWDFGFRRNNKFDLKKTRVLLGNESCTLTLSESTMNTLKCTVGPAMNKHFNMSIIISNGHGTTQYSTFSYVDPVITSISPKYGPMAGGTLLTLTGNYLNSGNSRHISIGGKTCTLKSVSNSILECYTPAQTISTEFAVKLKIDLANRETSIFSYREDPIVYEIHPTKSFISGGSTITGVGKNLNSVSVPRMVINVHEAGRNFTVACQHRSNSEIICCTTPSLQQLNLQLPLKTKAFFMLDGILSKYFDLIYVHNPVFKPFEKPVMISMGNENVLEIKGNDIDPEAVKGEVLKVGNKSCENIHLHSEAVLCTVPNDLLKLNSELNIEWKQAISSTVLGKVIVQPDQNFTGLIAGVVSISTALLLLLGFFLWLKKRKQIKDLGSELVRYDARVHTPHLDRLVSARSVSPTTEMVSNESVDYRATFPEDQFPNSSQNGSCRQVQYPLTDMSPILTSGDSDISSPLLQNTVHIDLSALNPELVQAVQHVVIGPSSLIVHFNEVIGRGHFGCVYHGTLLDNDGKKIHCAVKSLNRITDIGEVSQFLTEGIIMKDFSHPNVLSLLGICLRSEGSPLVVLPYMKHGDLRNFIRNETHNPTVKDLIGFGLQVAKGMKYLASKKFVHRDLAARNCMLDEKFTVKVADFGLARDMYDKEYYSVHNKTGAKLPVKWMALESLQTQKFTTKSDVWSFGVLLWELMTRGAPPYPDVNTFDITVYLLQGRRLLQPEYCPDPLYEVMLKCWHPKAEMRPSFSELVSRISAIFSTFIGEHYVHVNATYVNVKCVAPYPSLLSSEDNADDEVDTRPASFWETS
Sequence of Kdr (P35968 20-1356, species assumed): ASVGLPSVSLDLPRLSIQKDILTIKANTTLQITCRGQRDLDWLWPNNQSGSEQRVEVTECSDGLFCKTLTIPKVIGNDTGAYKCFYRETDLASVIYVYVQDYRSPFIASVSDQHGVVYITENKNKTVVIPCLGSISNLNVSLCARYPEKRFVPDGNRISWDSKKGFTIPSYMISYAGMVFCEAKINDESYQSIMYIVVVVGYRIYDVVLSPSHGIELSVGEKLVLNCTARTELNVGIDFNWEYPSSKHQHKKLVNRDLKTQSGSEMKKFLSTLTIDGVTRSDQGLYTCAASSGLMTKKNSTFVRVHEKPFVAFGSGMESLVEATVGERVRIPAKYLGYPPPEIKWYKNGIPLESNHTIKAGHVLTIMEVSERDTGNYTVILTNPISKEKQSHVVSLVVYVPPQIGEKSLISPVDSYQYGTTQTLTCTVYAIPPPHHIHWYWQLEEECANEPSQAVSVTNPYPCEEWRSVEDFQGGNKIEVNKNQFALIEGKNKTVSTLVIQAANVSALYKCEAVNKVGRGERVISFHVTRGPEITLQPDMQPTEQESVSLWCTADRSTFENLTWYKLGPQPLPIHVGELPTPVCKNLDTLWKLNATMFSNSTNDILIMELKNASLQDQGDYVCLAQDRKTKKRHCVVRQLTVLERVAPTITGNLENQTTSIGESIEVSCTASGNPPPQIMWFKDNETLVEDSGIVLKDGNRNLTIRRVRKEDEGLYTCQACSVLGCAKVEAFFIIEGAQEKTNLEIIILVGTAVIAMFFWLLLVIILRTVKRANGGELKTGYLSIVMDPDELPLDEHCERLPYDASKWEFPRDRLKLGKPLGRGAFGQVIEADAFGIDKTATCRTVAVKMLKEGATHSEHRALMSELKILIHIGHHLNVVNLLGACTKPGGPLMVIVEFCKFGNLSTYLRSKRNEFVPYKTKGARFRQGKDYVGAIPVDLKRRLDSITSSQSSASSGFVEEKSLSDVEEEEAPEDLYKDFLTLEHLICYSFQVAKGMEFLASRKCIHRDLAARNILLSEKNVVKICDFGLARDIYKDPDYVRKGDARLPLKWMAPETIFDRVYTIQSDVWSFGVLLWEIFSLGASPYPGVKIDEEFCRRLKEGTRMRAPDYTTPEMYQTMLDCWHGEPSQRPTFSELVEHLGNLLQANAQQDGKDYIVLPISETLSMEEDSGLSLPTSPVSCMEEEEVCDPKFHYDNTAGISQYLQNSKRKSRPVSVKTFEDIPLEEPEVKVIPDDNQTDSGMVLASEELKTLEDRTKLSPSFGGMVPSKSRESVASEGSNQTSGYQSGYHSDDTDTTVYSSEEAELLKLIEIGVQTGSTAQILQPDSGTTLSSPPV
Sequence of Jak-2 (O60674 whole entry, species assumed): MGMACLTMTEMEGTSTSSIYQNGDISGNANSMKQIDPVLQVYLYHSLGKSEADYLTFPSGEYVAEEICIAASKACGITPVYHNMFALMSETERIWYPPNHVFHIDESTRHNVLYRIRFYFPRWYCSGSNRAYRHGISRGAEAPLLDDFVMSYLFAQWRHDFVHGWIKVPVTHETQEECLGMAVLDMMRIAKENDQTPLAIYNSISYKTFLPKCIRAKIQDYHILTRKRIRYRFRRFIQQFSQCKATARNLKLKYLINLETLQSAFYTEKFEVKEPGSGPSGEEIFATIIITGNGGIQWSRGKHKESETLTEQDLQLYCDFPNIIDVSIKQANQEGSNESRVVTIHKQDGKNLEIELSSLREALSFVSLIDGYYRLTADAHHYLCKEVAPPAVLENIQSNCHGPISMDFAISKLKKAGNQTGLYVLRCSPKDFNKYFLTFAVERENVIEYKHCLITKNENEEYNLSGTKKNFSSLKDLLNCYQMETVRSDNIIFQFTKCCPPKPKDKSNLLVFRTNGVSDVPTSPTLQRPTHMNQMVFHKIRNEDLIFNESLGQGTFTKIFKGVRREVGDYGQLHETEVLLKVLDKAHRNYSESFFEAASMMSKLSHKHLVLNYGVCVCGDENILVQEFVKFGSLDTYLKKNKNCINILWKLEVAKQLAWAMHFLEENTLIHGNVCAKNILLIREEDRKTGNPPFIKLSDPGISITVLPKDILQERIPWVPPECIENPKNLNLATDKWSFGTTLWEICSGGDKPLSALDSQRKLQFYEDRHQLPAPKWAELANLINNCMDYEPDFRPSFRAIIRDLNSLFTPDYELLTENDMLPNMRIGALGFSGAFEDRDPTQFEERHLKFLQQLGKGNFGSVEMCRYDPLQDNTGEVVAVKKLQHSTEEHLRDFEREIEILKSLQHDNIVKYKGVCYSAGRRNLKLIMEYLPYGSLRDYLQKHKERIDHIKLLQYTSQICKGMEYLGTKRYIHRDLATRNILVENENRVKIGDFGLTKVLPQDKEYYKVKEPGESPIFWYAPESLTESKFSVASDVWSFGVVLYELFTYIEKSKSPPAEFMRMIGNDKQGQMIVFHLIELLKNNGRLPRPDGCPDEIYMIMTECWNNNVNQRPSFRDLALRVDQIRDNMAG
Sequence of β-PDGF receptor (P09619 33-1106): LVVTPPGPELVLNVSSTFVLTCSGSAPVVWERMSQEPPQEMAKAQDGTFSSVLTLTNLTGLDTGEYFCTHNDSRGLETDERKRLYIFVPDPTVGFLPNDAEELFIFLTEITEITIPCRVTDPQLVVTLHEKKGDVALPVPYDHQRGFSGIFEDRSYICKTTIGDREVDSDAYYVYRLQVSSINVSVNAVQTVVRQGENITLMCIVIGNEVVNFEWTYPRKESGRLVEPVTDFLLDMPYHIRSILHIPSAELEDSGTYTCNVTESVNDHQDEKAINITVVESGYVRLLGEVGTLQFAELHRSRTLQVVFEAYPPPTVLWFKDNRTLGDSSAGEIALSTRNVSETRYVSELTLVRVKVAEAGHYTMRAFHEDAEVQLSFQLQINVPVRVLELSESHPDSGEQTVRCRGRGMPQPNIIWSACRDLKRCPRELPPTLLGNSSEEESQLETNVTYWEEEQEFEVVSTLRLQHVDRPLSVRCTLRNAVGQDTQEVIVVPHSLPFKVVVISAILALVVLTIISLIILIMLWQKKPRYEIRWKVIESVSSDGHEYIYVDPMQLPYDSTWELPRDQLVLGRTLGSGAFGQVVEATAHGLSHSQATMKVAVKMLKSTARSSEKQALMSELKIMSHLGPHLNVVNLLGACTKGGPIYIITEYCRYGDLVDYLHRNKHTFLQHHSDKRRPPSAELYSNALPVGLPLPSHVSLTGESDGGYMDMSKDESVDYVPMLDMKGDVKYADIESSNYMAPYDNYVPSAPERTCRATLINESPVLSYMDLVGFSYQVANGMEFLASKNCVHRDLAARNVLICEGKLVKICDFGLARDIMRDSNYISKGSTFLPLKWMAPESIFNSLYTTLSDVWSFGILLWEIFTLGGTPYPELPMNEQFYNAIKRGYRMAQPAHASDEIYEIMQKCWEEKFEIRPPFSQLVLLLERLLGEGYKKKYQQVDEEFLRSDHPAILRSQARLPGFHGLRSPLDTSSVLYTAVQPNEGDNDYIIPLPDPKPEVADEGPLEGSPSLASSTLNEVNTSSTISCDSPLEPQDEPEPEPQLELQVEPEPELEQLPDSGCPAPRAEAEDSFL

SMILES: CC[C@]1(O)C[C@@H]2CN(CCc3c([nH]c4ccccc34)[C@@](C(=O)OC)(c3cc4c(cc3OC)N(C)[C@H]3[C@@](O)(C(=O)OC)[C@H](OC(C)=O)[C@]5(CC)C=CCN6CC[C@]43[C@@H]65)C2)C1 [Vinblastine, vinblastine]
- interaction with COMPOUND I in combination [1]: Slight synergism or synergy

SMILES: Cc1ccc(NC(=O)c2ccc(CN3CCN(C)CC3)cc2)cc1Nc1nccc(-c2cccnc2)n1 [COMPOUND I, N-{5-[4-(4-methyl-piperazino-methyl)-benzoylamido]-2-methylphenyl}-4-(3-pyridyl)-2-pyrimidine-amine]
- inhibition of c-Met [2]: no inhibition
- inhibition of kinase activity of Flt-1 [3]: not
- inhibition of kinase activity of β-PDGF receptor [4]: potently inhibit
- percent inhibition of neointimal lesion formation ([5]; 0.5 mg/kg oral daily): 17%
- percent inhibition of neointimal lesion formation ([5]; 2.0 mg/kg oral daily): 37%
- neointimal lesion formation at 28 days following balloon injury ([5]; oral daily, dose of from 0.2 to 3.5 mg, preferably 0.5 to 2.0 mg/kg): significantly reduce
- inhibition of PDGF receptor tyrosine kinase [6]: selectively inhibits
- inhibition of kinase activity of Tek [7]: not
- inhibition of kinase activity of Kdr [8]: not
- EEL area compared with control [9, 14]: did not result in differences
- intima healing in arterial segments [9, 14]: well healed
- reduction in average neointimal thickness ([9]; 30 mg/kg orally once daily, 28 days after stenting, vs placebo, P<0.0001): 29%
- reduction in percent arterial stenosis ([9]; 30 mg/kg orally once daily, 28 days after stenting, vs placebo, P<0.0002): 17%
- reduction in neointimal area ([9]; 30 mg/kg orally once daily, 28 days after stenting, vs placebo, P<0.04): 17%
- fibrin deposit ([9]; rabbit iliac arteries, in-stent): reduced
- inhibition of kinase activity of the receptor for stem cell factor [10]: potently inhibit
- inhibition of Jak-2 [11]: no inhibition
- inhibition of kinase activity of Flt-3 [12]: not
- inhibition of kinase activity of α-PDGF receptor [13]: potently inhibit

SMILES: COc1cccc2c1C(=O)c1c(O)c3c(c(O)c1C2=O)C[C@@](O)(C(=O)CO)C[C@@H]3O[C@H]1C[C@H](N)[C@H](O)[C@H](C)O1 [doxorubicin]
- interaction with COMPOUND I in combination [1]: Slight synergism or synergy

SMILES: CC(=O)O[C@H]1C(=O)[C@@]2(C)[C@H]([C@H](OC(=O)c3ccccc3)[C@]3(O)C[C@H](OC(=O)[C@H](O)[C@@H](NC(=O)c4ccccc4)c4ccccc4)C(C)=C1C3(C)C)[C@]1(OC(C)=O)CO[C@@H]1C[C@@H]2O [Taxol, taxol]
- interaction with COMPOUND I in combination [1]: Slight synergism or synergy
